Measurements published in PMC12799219, “In vitro and in vivo studies on the activity and selectivity of butoconazole in experimental infection by Trypanosoma cruzi” (Memórias do Instituto Oswaldo Cruz, 2026).
Entries after “also recorded” stand apart in the source; their conditions may differ. Where two headings read alike, the source gives them in different places.

Assays:
[1] = tested on: T. cruzi intracellular forms (Tulahuen strain); experiment: In vitro activity on intracellular forms of T. cruzi in L929 cells (β-galactosidase/CPRG); type: cell-based, Trypanosoma cruzi; conditions: for EC90: read-out: Activity against T. cruzi intracellular forms EC90
Protocol: In vitro activity on intracellular forms of T. cruzi - L929 cells previously seeded in 96-well plates (4 x 10^3 cells/well) were infected (ratio of 10 parasites:1 host cell) for 2 h with trypomastigote forms (Tulahuen strain transfected with the β-galactosidase gene, DTU VI).

[2] = tested on: T. cruzi (Y strain) blood trypomastigotes; experiment: In vitro activity on bloodstream trypomastigotes; type: cell-based, Trypanosoma cruzi; conditions: for EC90 / EC50: Trypanosoma cruzi
Protocol: In vitro activity on bloodstream trypomastigotes - Swiss male mice were inoculated with 5 x 10^4 bloodstream trypomastigotes (BT, Y strain, DTU II) and at the parasitaemia peak [8th post-infection (dpi)], euthanised using 3% isoflurane and blood samples obtained by cardiac puncture (CEUA FIOCRUZ L038-2017). Then, 100 μL of parasite suspension (10^7/mL in RPMI medium + 5% FBS) was added to the same volume of RPMI + 5% FBS containing treatment with BTZ (serially diluted - 1:2) at twice the desired final concentration. After 2 and 24 h at 37 °C, the number of live parasites was determined by light microscopy quantification using a Neubauer chamber.[6] Untreated controls were carried out with parasites kept under the same conditions and BZ was run in parallel. The activity of the compounds was expressed by the EC50 and EC90 values. The assays were done at least twice, in duplicate.

[3] = tested on: T. cruzi bloodstream trypomastigotes (Y strain); experiment: Mouse model of acute T. cruzi infection: parasitaemia and mortality; type: in vivo, Swiss male mice; conditions: for mortality (cumulative death) / parasitaemia peak decline at the 8 dpi: assay 1: BZ 25 mg/kg/day p.o., BTZ 45.61 mg/kg/day i.p.; for mortality (cumulative death) / parasitaemia reduction: five days; for parasitaemia peak decline at the 8 dpi: five days from 5 dpi; for animal mortality: assay 2, lower doses: BZ 10 mg/kg/day p.o.
Protocol: In vivo analysis in a mouse model of acute T. cruzi infection - Swiss male mice (18 - 20 g) were obtained from the Institute of Sciences and Technologies in Biomodels (ICTB-FIOCRUZ), housed with a maximum of 5 animals per cage and kept in a specific pathogen-free (SPF) room at 20 - 24 °C under a 12 h light/dark cycle. All animals received sterilised water and food ad libitum. The animals were acclimatised for seven days before the experiments. For a proof-of-concept study, animals were infected by i.p (1x10^4) with bloodstream trypomastigotes (Y strain). The drugs administration started at the onset of parasitaemia (5th day dpi), only using mice with detectable parasitaemia.[19] ^, [28] Control mice groups were age-matched and housed under identical conditions. The following experimental groups were used ≥ 3 mice per group: untreated (infected vehicle-treated control) and treated orally (p.o) with BZ (10, 25 and 100 mg/kg/day), corresponding to suboptimal and optimal doses of the reference drug; infected and treated with BTZ (i.p) using concentrations adjusted to be equimolar to BZ doses (18.24, 45.61 and 182.44 mg/kg/day). Also, the following combo was administered: BZ (10 mg/kg/day/p.o) + BTZ (18.24 mg/kg/day/i.p). The animals received the drugs once a day for five consecutive days. A […] optimal dose of BZ (10 mg/kg/day) was chosen to clearly observe any benefit of its association with BTZ. The i.p. route for BTZ was chosen due to its low aqueous solubility.
Parasitaemia and mortality rate - Parasitaemia was performed by collecting 5 μL of the blood from the tail’s vein, disposing it on a slide and covering with coverslips (18 x 18 mm) for direct counting of parasites observed in 50 fields under light microscope (40X magnification).[19] ^, [28] The mortality was followed daily up to 30 days after the end of treatment and expressed as a percentage of cumulative mortality (% CM).[19] ^, [27] In vivo assays were conducted with n = 5 per group.

[4] = Cytotoxicity assay on L929 fibroblasts (AlamarBlue); type: cell-based; conditions: mouse
Protocol: Mammalian cell cultures - L929 fibroblast lineage were cultured in Roswell Park Memorial Institute 1640 medium without phenol red (RPMI - Sigma-Aldrich, St. Louis, MO, USA), supplemented with 10% foetal bovine serum (FBS - Cultilab - SP - Brazil) and 2 mM glutamine (Sigma-Aldrich, St. Louis, MO, USA) with pH 7.2 - 7.4, as previously reported.[21] H9C2, cardiomyoblast cultures, were maintained in Dulbecco’s Modified Eagle’s Medium (DMEM) high glucose (4500 mg/L) medium supplemented (Sigma-Aldrich, St. Louis, MO, USA) with 10% FBS (Cultilab - SP -Brazil), 2 mM glutamine (Sigma-Aldrich, St. Louis, MO, USA) and 100 μg/mL penicillin/streptomycin (Sigma-Aldrich, St. Louis, MO, USA).[22] Both cell cultures maintained at 37 °C under an atmosphere of 5% CO2, with weekly dissociation protocol using 0.01% trypsin.
Cytotoxicity assay - The toxicity of the compounds was evaluated on two mammalian cell lines (L929 and H9C2), as reported.[21] The cells were seeded in 96-well plates (4 x 10^3 cells/well - for L929; 25x10^3 cells/well - for H9C2) and incubated at 37 °C and 5% CO2. The L929 cultures were kept under treatment for 96 and 168 h with a serial dilution (1:2) of the compounds (up to 400 μM). After the treatment periods, the AlamarBlue® reagent (Thermo Fisher Scientific Inc) was added and incubated for 24 h. The H9C2 cultures were also treated in serial dilution up to 200 μM for 24 h. PrestoBlue® reagent (Thermo Fisher Scientific Inc) was added to the cultures and incubated for 3 h. All plates were analysed in the spectrophotometer SpectraMaxM3 (570 and 600 nm) and LC50 values (concentration capable of inducing loss of viability in 50% of the cells) determined.[21] All assays were done at least twice, in triplicates.

[5] = Trypanosoma cruzi, TULAHUEN, L929, 96 h, read-out: Activity against T. cruzi intracellular forms EC50, Tulahuen strain in L929, 96 h
[6] = 2 h, read-out: Activity on T. cruzi (Y strain) blood trypomastigotes EC50
[7] = 24 h, read-out: Activity on T. cruzi (Y strain) blood trypomastigotes EC50
[8] = 24 h, read-out: Activity on T. cruzi (Y strain) blood trypomastigotes pEC50 (converted)
[9] = assay 2, higher doses: BZ 100 mg/kg/day p.o., BTZ 182.44 mg/kg/day i.p.
[10] = assay 2, lowest doses: BZ 10 mg/kg/day p.o., BTZ 18.24 mg/kg/day i.p.

| SMILES | EC50 [1, 5] [µM] | EC90 ([2]; 2 h) [µM] | EC50 [2, 6] [µM] | EC90 ([2]; 24 h) [µM] | EC50 [2, 7] [µM] | EC50 [2, 8] [µM] | mortality (cumulative death) [3] [%] | parasitaemia peak decline at the 8 dpi [3] [%] | animal survival [3, 9] [%] | parasitaemia reduction [3, 9] | animal mortality ([3]; BTZ 18.24 mg/kg/day i.p.) [%] | parasitaemia reduction [3, 10] | CC50 at 96 h [4] [µM] | CC50 at 168 h [4] [µM] | other results |
| --- | --- | --- | --- | --- | --- | --- | --- | --- | --- | --- | --- | --- | --- | --- | --- |
| O=C(Cn1ccnc1[N+](=O)[O-])NCc1ccccc1 [BZ, benznidazole] | 1.73 ± 0.16 | > 20 | > 20 | 17.5 ± 0.65 | 5.93 ± 0.15 | 6.03 | 0 | 93 | 100 | suppressed the peak; also recorded: fully suppressed parasitaemia | 100 | only slightly | > 400 | > 200 | EC90 ([1]; Trypanosoma cruzi, TULAHUEN, L929, 96 h): 7.65 ± 1.69 µM; EC50 ([1]; Trypanosoma cruzi, TULAHUEN, L929, 96 h, read-out: Activity against T. cruzi intracellular forms pEC50, Tulahuen strain in L929, 96 h (converted)): 1.74 µM; EC50 at 168 h ([4]; L929 fibroblast cells, printed in the 168 h column, read-out: Cytotoxicity on L929 cells pEC50 (converted)): > 200 µM |
| Clc1ccc(CCC(Cn2ccnc2)Sc2c(Cl)cccc2Cl)cc1 (stereo not drawn) [BTZ, butoconazole] | 0.075 | > 20 | > 20 | 18.64 ± 0.11 | 13.8 ± 0.7 | 14.1 | 40 | 50 | 100 | 63% | 75 | only slightly | 23.9 ± 1.1 | 17.5 ± 3.24 | EC50 ([1]; Trypanosoma cruzi, TULAHUEN, L929, 96 h, Tulahuen strain in L929, 96 h, read-out: Activity against T. cruzi intracellular forms pEC50 (converted)): 0.0708 µM; EC90 ([1]; Trypanosoma cruzi, Tulahuen strain in L929, 96 h): 3.88 ± 0.45 µM; EC50 ([1]; Tulahuen strain in L929, 96 h, read-out: Activity against T. cruzi intracellular forms EC50): 0.07 ± 0.02 µM; fold less potent than BZ on bloodstream trypomastigotes ([2]; 24 h, EC50 versus BZ): 2.3 fold; EC50 at 168 h [4]: 24 µM |
